The values below come from article PMC6445550 (Analytical biochemistry, 2014).

As a reminder, the IC50 is the concentration needed to halve the response being measured. Higher therefore signals weaker potency in that assay.

This assay deals with T1, Erf2 (Saccharomyces cerevisiae, UniProt Q06551).
T1 sequence (Q06551 1-359): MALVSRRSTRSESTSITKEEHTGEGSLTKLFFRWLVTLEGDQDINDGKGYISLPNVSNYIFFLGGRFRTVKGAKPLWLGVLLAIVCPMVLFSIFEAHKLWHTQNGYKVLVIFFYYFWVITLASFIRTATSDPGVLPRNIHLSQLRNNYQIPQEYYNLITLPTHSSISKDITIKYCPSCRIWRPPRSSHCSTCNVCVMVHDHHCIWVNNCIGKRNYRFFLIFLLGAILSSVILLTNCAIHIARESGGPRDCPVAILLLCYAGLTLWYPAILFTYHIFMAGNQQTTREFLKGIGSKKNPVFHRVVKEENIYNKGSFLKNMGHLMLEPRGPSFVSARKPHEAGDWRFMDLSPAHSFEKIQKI
In words: fluorescence coupled autopalmitoylation assay with purified complex. Type of assay: biochemical.

Structures are written as SMILES.

In turn, `CCCCCCCCCCCCCCC(Br)C(=O)O` (stereo not shown) [2-BP, 2-bromopalmitate] showed an IC50 of about 100 µM.
